Source: patent publication US20040048279A1, “Method for detecting methylation states for a toxicological diagnostic” (priority 2000, published 2004)

Tests used:
Cyp1a1 = details: mice exposed to the substance; Arch Biochem Biophys 2000;376(1):66-73; cited from earlier work
HT29-P208 cells = assay: Methylation state of CpG positions by bisulfite treatment, multiplex PCR and oligonucleotide array hybridization in treated HT29-P208 cells; assay type: cell-based; details: for methylation state of selected CpG positions of the genes EGFR, ANT1 and CDC25A (CG signal / (CG+TG signal)): trichostatin 50 nM or milrinone 50 μM, FIG. 4; for methylation state of selected CpG positions of the genes EGFR, ANT1 and CDC25A (CG signal / (CG+TG signal)) / methylation state of selected CpGs of the genes TGF-a, EGFR, ANT1 and E-cadherin (CG signal / (CG+TG signal)): treated versus untreated; for methylation state of selected CpGs of the genes TGF-a, EGFR, ANT1 and E-cadherin (CG signal / (CG+TG signal)): FIG. 3; for differences in methylation of 64 gene fragments versus controls: treatment time 6 h (data not shown); for degree of methylation of various CpG positions of 64 gene fragments, in contrast to controls (HT29-P208 in medium): treatment time 24 h, 10 ng/ml TGF-b1 or 10 ng/ml IL-1b in medium, FIGS. 1 and 2, p<0.05
Procedure: HT-29 P208 cells (5×10^4 cells/ml) were seeded in culture dishes (33×5 cm) and grown for 5 days in DMEM/Ham's F-12 medium, which was supplemented with 10% fetal calf serum at 37° C. and 5% CO2, up to 95% confluence (Campbell-Thompson, M. and Bhardwaj, B., Cancer Research 2001, 61, 632-640). The cells were then incubated for 24 h in medium not containing calf serum. After repeated change of medium, the cells were incubated in 3 parallel cultures for 6 h and 24 h, either with medium, medium supplemented with 10 ng/ml TGF-b1, medium supplemented with 10 ng/ml IL-1b, medium supplemented with trichostatin (50 nM) or medium supplemented with milrinone (50 μM). The cells freed of medium were treated with trypsin, centrifuged, and resuspended in 200 μl of PBS buffer (Fritsch and Maniatis eds., Molecular Cloning: A Laboratory Manual, 1989), and stored at −20° C. The chromosomal DNA was purified with a QIAamp Kit according to the manufacturer's instructions (Qiagen, Hilden).
The DNA samples (20 ng) were digested with the restriction enzyme Mss1. The digested DNA was chemically converted with hydrogen sulfite (bisulfite, disulfite) and a radical trap at elevated temperature (DE 10050942). In this way, after alkaline hydrolysis, all unmethylated cytosines are converted to uracil, which correspond in their base-pairing behavior to thymidine. In contrast, 5-methylcytosine is not modified under these conditions.
The chemically pretreated DNA was then amplified with the use of a heat-stable DNA polymerase in a polymerase chain reaction. The multiplex PCR reactions were conducted with a thermocycler (Eppendorf GmbH) with the use of 10 ng of bisulfite-treated DNA, each time with […] of primer oligonucleotides (mixture of up to 32 individual primer oligonucleotides; see Table 3), 800 μM dNTPs and 4.5 mM magnesium chloride. The cycler program was as follows: step 1, 14 min at 96° C.; step 2, 60 sec 96° C.; step 3, 45 sec 55° C.; step 4, 75 sec 72° C.; step 5, 10 min at 72° C.; steps 2 to 4 were repeated 39 times.
The DNA fragments of 64 different genes listed in Table 3 were amplified with 6 sets of multiplex PCR (mPCR) and with bisulfite-treated DNA as the template, as described above. The mPCR reactions (I, J, K, L, M, N) of the genomic, bisulfite-treated DNA were conducted with the combination of primer oligonucleotides as listed in Table 3. It is also possible, however, to use other primer oligonucleotides in the same way for the amplification of the genomic, bisulfite-treated DNA. The primer pairs listed in Table 1, however, are particularly preferred.
The amplificates produced in Example 2 were hybridized with 512 oligonucleotides, which were bound to a solid phase (Model, F. and Adorjian, P., Bioinformatics 2001, 17 Suppl. 1, 157-164). The solid phase loaded with oligonucleotides is named an oligonucleotide array below. The detectability of the hybridization product is based on primer oligonucleotides fluorescently labeled with Cy5, which were used for the amplification. A hybridization reaction of the amplified DNA with the oligonucleotide, for example, GTTTTTTTCGTTTTAGAG (Sequence ID 6), occurs only when a methylated cytosine is present at the said site of the bisulfite-treated DNA. Thus, the methylation state of the specific cytosine can be determined by means of the hybridization product. In order to verify the methylation state of said position, an oligonucleotide is found on the oligonucleotide array, which permits it to detect the unmethylated cytosine. This oligonucleotide is identical to the oligonucleotide which was previously used for the analysis of the methylated status of the sample, with the exception that the oligonucleotide bears a thymine base instead of a cytosine base at the position to be analyzed, e.g., GTTTTTTTTGTTTTAGAG (Sequence ID 7). Thus, a hybridization reaction occurs only if an unmethylated cytosine is present at the position to be analyzed. […]

Row | Compound | Cyp1a1 gene expression after exposure (Cyp1a1) | methylation state of selected CpG positions of the genes EGFR, ANT1 and CDC25A (CG signal / (CG+TG signal)) (HT29-P208 cells) | methylation state of selected CpGs of the genes TGF-a, EGFR, ANT1 and E-cadherin (CG signal / (CG+TG signal)) (HT29-P208 cells) | differences in methylation of 64 gene fragments versus controls (HT29-P208 cells) | degree of methylation of various CpG positions of 64 gene fragments, in contrast to controls (HT29-P208 in medium) (HT29-P208 cells)
1 | O=c1cc(-c2ccccc2)oc2ccc3ccccc3c12 [beta-naphthoflavone] | induced | – | – | – | –
2 | Cc1[nH]c(=O)c(C#N)cc1-c1ccncc1 [milrinone, reference compound] | – | reduction in the methylation state | – | – | –
3 | CC(/C=C/C(=O)NO)=C\[C@@H](C)C(=O)c1ccc(N(C)C)cc1 [trichostatin, reference compound] | – | increase | – | – | –
4 | IL-1b: IL-1b (interleukin), exogenous cytokine added to medium at 10 ng/ml | – | – | no change or to an increase in the methylation state | no significant differences in methylation | greater degree of methylation
5 | TGF-b1: TGF-b1 (transforming growth factor), exogenous cytokine added to medium at 10 ng/ml | – | – | significant reduction of the methylation state | no significant differences in methylation | smaller degree of methylation
